Measured values as given in patent publication US20260144739A1, “A SKIN BRIGHTENING COMPOSITION” (Conopco, Inc., d/b/a UNILEVER, priority 2022, published 2026).

What was measured:
[1] = tested on: Co-cultures of HaCat keratinocytes and primary human melanocytes; test: Melanin content assay (% melanin reduction) in keratinocyte + melanocyte co-cultures; type: cell-based; conditions: 72 hrs treatment; melanin (405 nm) corrected for cell numbers (MC/Calcein); vs DMSO control; actives in wt % as per example; fermented oil samples diluted 1:40
Method: Various samples containing actives were prepared and the % melanin reduction was measured. The protocol for measuring the melanin reduction is summarized below:
Co-cultures of HaCat keratinocytes and primary human melanocytes were mixed at 40,000 each (1:1 ratio) in 1 ml of a 1:1 mix of their respective culture medium and seeded as such per well, in 12 well plates. After 24 hrs, cultures were treated with various concentrations of the test materials shown in table 1 and left undisturbed for a further period of 72 hrs. Comparative vehicle control was also set up simultaneously. For melanin estimation at the end of the 72 hrs incubation, cell viability was first determined using the Calcein AM method. Briefly, spent media was removed and cells were washed once with 0.4 ml of 1×PBS/well. Fresh 1 μM calcein-AM in PBS buffer was added to each well, including control wells without cells. Plates were covered with aluminium foil and incubated for 30 mins at 37° C. in a CO2 incubator. Calcein fluorescence was measured (excitation at 490 nm and emission at 520 nm) in a TECAN M1000 plate reader. Culture wells were drained and lysed using 1N NaOH containing 10% DMSO and placed for 1 hour at 60° C. in a shaker incubator. 100 μl of the supernatant was transferred to a 384 well plate and melanin was measured in a TECAN plate reader (405 nm filter). […]

[2] = tested on: Co-cultures of HaCat keratinocytes and primary human melanocytes; test: Cell viability by the Calcein AM method in the co-cultures; type: cell-based; conditions: 4-HR at concentrations higher than 0.0002%, at the cellular level in invitro experiments
Method: Co-cultures of HaCat keratinocytes and primary human melanocytes were mixed at 40,000 each (1:1 ratio) in 1 ml of a 1:1 mix of their respective culture medium and seeded as such per well, in 12 well plates. After 24 hrs, cultures were treated with various concentrations of the test materials shown in table 1 and left undisturbed for a further period of 72 hrs. Comparative vehicle control was also set up simultaneously. For melanin estimation at the end of the 72 hrs incubation, cell viability was first determined using the Calcein AM method. Briefly, spent media was removed and cells were washed once with 0.4 ml of 1×PBS/well. Fresh 1 μM calcein-AM in PBS buffer was added to each well, including control wells without cells. Plates were covered with aluminium foil and incubated for 30 mins at 37° C. in a CO2 incubator. Calcein fluorescence was measured (excitation at 490 nm and emission at 520 nm) in a TECAN M1000 plate reader. Culture wells were drained and lysed using 1N NaOH containing 10% DMSO and placed for 1 hour at 60° C. in a shaker incubator. 100 μl of the supernatant was transferred to a 384 well plate and melanin was measured in a TECAN plate reader (405 nm filter). Melanin content (MC) was expressed after correction for cell numbers (MC/Calcein) and represented as % melanin.

| Compound | % melanin reduction [1] [%] | cell viability [2] |
| --- | --- | --- |
| CCCCCCc1ccc(O)cc1O [B] | 23 |  |
| CCCCCCc1ccc(O)cc1O [C] | 3 |  |
| CCCCCCc1ccc(O)cc1O [Example 4-HR, 4-hexyl resorcinol] |  | leads to cell viability problems |
